Results taken from patent US20180000085A1, “USE OF PICOLINAMIDE COMPOUNDS WITH FUNGICIDAL ACTIVITY” (DOW AGROSCIENCES LLC, priority 2014, published 2018).

Columns and labels:
Zymoseptoria tritici = assay: Leaf blotch of wheat (SEPTTR) disease control on wheat seedlings; format: in vivo; design: key to SEPTTR 1DP, HV activity at 100 ppm (% control rating) / SEPTTR 3DC, HV activity at 100 ppm (% control rating) / SEPTTR disease control, 1DP / SEPTTR disease control, 3DC / SEPTTR 1DP disease control rating, HV activity / SEPTTR 3DC disease control rating, HV activity / SEPTTR 3DC, LV activity at 125.1 g/H (% Control rating) / SEPTTR 1DP, LV activity at 125.1 g/H (% Control rating) / SEPTTR 1DP disease control rating, LV activity at 125.1 g/H / SEPTTR 3DC disease control rating, LV activity at 125.1 g/H / SEPTTR 3DC disease control rating, HV activity at 100 ppm / SEPTTR 1DP disease control rating, HV activity at 100 ppm / HV activity at 100 ppm SEPTTR 3DC (disease control rating) / HV activity at 100 ppm SEPTTR 1DP (disease control rating) / LV activity at 125.1 g/H SEPTTR 1DP (disease control rating) / LV activity at 125.1 g/H SEPTTR 3DC (disease control rating): A: > 80; B: ≤ 80; C: Not Tested; D: No Activity Observed in the Reported Assay; conditions: for SEPTTR 1DP disease control rating, HV activity at 100 ppm / SEPTTR 3DC disease control rating, HV activity at 100 ppm: high volume application
Puccinia triticina = assay: Wheat brown rust (PUCCRT) disease control on wheat seedlings; format: in vivo; design: key to PUCCRT 3DC, HV activity at 100 ppm (% control rating) / PUCCRT disease control, 3DC / PUCCRT 1DP disease control rating, HV activity / PUCCRT 3DC disease control rating, HV activity / PUCCRT 3DC, LV activity at 125.1 g/H (% Control rating) / PUCCRT 1DP, LV activity at 125.1 g/H (% Control rating) / PUCCRT 3DC disease control rating, LV activity at 125.1 g/H / PUCCRT 1DP disease control rating, LV activity at 125.1 g/H / PUCCRT 3DC disease control rating, HV activity at 100 ppm / PUCCRT 1DP disease control rating, HV activity at 100 ppm / HV activity at 100 ppm PUCCRT 3DC (disease control rating) / LV activity at 125.1 g/H PUCCRT 1DP (disease control rating) / LV activity at 125.1 g/H PUCCRT 3DC (disease control rating): A: > 80; B: ≤ 80; C: Not Tested; D: No Activity Observed in the Reported Assay; conditions: for PUCCRT 1DP disease control rating, HV activity at 100 ppm / PUCCRT 3DC disease control rating, HV activity at 100 ppm: high volume application
[1] = low volume application, 125.1 g/H, 1 day protectant
[2] = low volume application, 125.1 g/H, 3 day curative
[3] = low volume application, 125.1 g/H, 1 Day Protectant
[4] = low volume application, 125.1 g/H, 3 Day Curative

| Structure (SMILES) | SEPTTR 1DP disease control rating, HV activity at 100 ppm (Zymoseptoria tritici; 1 day protectant) | SEPTTR 3DC disease control rating, HV activity at 100 ppm (Zymoseptoria tritici; 3 day curative) | PUCCRT 1DP disease control rating, HV activity at 100 ppm (Puccinia triticina; 1 day protectant) | PUCCRT 3DC disease control rating, HV activity at 100 ppm (Puccinia triticina; 3 day curative) | SEPTTR 1DP, LV activity at 125.1 g/H (% Control rating) (Zymoseptoria tritici; [3]) | SEPTTR 3DC, LV activity at 125.1 g/H (% Control rating) (Zymoseptoria tritici; [4]) | PUCCRT 1DP, LV activity at 125.1 g/H (% Control rating) (Puccinia triticina; [3]) | PUCCRT 3DC, LV activity at 125.1 g/H (% Control rating) (Puccinia triticina; [4]) | also measured |
| --- | --- | --- | --- | --- | --- | --- | --- | --- | --- |
| COc1ccnc(C(=O)N[C@@H](C)C(=O)O[C@@H](C)[C@@H](Oc2cccc(Cl)c2)C(C)C)c1OCOC(C)=O [Cmpd 852] |  |  |  |  |  |  |  |  | SEPTTR 1DP disease control rating, LV activity at 125.1 g/H (Zymoseptoria tritici; [1]): B (≤ 80); SEPTTR 3DC disease control rating, LV activity at 125.1 g/H (Zymoseptoria tritici; [2]): A (> 80); PUCCRT 1DP disease control rating, LV activity at 125.1 g/H (Puccinia triticina; [1]): A (> 80); PUCCRT 3DC disease control rating, LV activity at 125.1 g/H (Puccinia triticina; [2]): A (> 80) |
| CCC(CC)[C@@H](Oc1cccc(Cl)c1)[C@H](C)OC(=O)[C@@H](NC(=O)c1nccc(OC)c1O)C(C)C [Cmpd 406] |  |  |  |  |  |  |  |  | SEPTTR 1DP disease control rating, HV activity (Zymoseptoria tritici; HV application at 100 ppm, 1 Day Protectant, wheat leaf blotch): B (≤ 80); SEPTTR 3DC disease control rating, HV activity (Zymoseptoria tritici; HV application at 100 ppm, 3 Day Curative, wheat leaf blotch): B (≤ 80); PUCCRT 1DP disease control rating, HV activity (Puccinia triticina; HV application at 100 ppm, 1 Day Protectant, wheat brown rust): B (≤ 80); PUCCRT 3DC disease control rating, HV activity (Puccinia triticina; HV application at 100 ppm, 3 Day Curative, wheat brown rust): B (≤ 80) |
| CC[C@H](NC(=O)c1nccc(OC)c1O)C(=O)O[C@@H](C)[C@H](Oc1ccccc1)C(C)C [Cmpd 810] | A (> 80) | A (> 80) | A (> 80) | A (> 80) |  |  |  |  |  |
| CCOc1ccnc(C(=O)N[C@@H](C)C(=O)O[C@@H](C)[C@@H](CC(C)C)Oc2ccc(Cl)c(OC)c2)c1OC(C)=O [Cmpd 1110] |  |  |  |  |  |  |  |  | LV activity at 125.1 g/H SEPTTR 1DP (disease control rating) (Zymoseptoria tritici; low volume application, 125.1 g/H, 1 Day Protectant, wheat leaf blotch): D; LV activity at 125.1 g/H SEPTTR 3DC (disease control rating) (Zymoseptoria tritici; low volume application, 125.1 g/H, 3 Day Curative, wheat leaf blotch): D; LV activity at 125.1 g/H PUCCRT 1DP (disease control rating) (Puccinia triticina; low volume application, 125.1 g/H, 1 Day Protectant, wheat brown rust): D; LV activity at 125.1 g/H PUCCRT 3DC (disease control rating) (Puccinia triticina; low volume application, 125.1 g/H, 3 Day Curative, wheat brown rust): D |
| COc1ccnc(C(=O)NCC(=O)O[C@@H](C)[C@H](Oc2ccccc2)C(C)C)c1O [Cmpd 809] | D | D | A (> 80) | A (> 80) |  |  |  |  |  |
| COc1ccnc(C(=O)N[C@@H](C)C(=O)O[C@@H](C)[C@H](Oc2ccc3ccccc3c2)C(C)C)c1OCOC(C)=O [Cmpd 622] |  |  |  |  | D | B (≤ 80) | A (> 80) | A (> 80) |  |
| CCCOCC(C)OC(=O)C(C)NC(=O)c1nccc(OC)c1OCOC(=O)C(C)C (centres unmarked) [Cmpd 523] |  |  |  |  | D | D | D | D |  |
| C=CC[C@@H](OCc1ccccc1)[C@H](C)OC(=O)[C@H](C)NC(=O)c1nccc(OC)c1OCOC(=O)COCC [Cmpd 517] |  |  |  |  | A (> 80) | D | A (> 80) | A (> 80) |  |
| COc1ccnc(C(=O)NC(C)C(=O)OC(C)C(Oc2ccc(F)cc2)c2ccccc2)c1O (centres unmarked) [Cmpd 837] | A (> 80) | A (> 80) | A (> 80) | A (> 80) |  |  |  |  |  |
| COc1ccnc(C(=O)NC(C)C(=O)OC(C)C(Oc2ccccc2)c2ccc(-c3ccccc3)cc2)c1O (centres unmarked) [Cmpd 833] | A (> 80) | B (≤ 80) | A (> 80) | B (≤ 80) |  |  |  |  |  |
| CCC(CC)[C@@H](Oc1ccc(C(F)(F)F)cc1)[C@H](C)OC(=O)[C@@H](NC(=O)c1nccc(OC)c1OCOC(C)=O)C(C)C [Cmpd 653] |  |  |  |  | D | B (≤ 80) | A (> 80) | B (≤ 80) |  |
